Assay results from publication PMC10222646 (Microorganisms, 2023).

How the values were obtained:
[1] = tested on: Caco-2
[2] = tested on: P. falciparum transmission to Anopheles gambiae mosquitoes; experiment: Transmission-blocking standard membrane feeding assay (SMFA), oocysts in mosquito midguts; type: in vivo, Plasmodium falciparum NF54; conditions: for Mean oocyst number per midgut: control 2.6; for Infect(%) percentage of infected mosquitoes: control 60
[3] = tested on: human cell lines (HepG2, HEK293, Caco-2, THP-1, macrophage)
[4] = tested on: HepG2
[5] = tested on: Anopheles gambiae mosquitoes; experiment: Mosquito mortality observed in SMFA (insecticidal activity); conditions: AST in blood meal
[6] = tested on: HEK293
[7] = target: T1, human GS-II (hGS-II) (Homo sapiens, UniProt P15104); experiment: Glutamine synthetase assay, human GS-II (Glutamine/Glutamate-GLO); type: biochemical; conditions: 1 µM AST, 30 min, Figure 2b
T1 construct: purchased BioVision Inc., Milpitas, CA, USA
Protocol: The activity and inhibition profiles of purified MBP-fused PfGS-I or human GS-II (hGS-II) (BioVision Inc., Milpitas, CA, USA) in the presence or absence of AST were estimated from glutamine production using Glutamine/Glutamate-GLO^TM Assay Kit (Promega, Madison, WI, USA). The assay mixture (50 mM imidazole-HCl buffer (pH 7.0), 7.6 mM ATP, 50 mM magnesium chloride, 50 mM ammonium chloride) with or without the indicated concentration of GS enzyme was preincubated in the presence or absence of the indicated concentrations of AST for 15 min at room temperature. The reaction was initiated through the addition of L-glutamate at 0.1 mM, the final concentration. The reaction mixtures were incubated at 37 °C with shaking at 300 rpm for the indicated time. The reactions were terminated by chilling the reaction mixture in ice water and filtered with 30 kDa Amicon Ultra centrifugal filters at 4 °C. Glutamate concentrations in the filtered samples were determined using a Glutamine/Glutamate-GLO^TM Assay as instructed in the kit’s manual, from which glutamine concentrations were estimated by subtracting the glutamate concentrations from the initial concentrations (0.1 mM). The EC50 (half maximal effective concentration) of AST for PfGS-I was calculated using Sigma Plot (Systat Software, Inc., Sun Jose, CA, USA).

[8] = target: T2, P. falciparum GS-I (PfGS-I) (Plasmodium falciparum, UniProt W7JM41); experiment: Glutamine synthetase assay, purified MBP-fused PfGS-I (Glutamine/Glutamate-GLO); type: biochemical, Plasmodium falciparum NF54
T2 sequence (W7JM41 1-544): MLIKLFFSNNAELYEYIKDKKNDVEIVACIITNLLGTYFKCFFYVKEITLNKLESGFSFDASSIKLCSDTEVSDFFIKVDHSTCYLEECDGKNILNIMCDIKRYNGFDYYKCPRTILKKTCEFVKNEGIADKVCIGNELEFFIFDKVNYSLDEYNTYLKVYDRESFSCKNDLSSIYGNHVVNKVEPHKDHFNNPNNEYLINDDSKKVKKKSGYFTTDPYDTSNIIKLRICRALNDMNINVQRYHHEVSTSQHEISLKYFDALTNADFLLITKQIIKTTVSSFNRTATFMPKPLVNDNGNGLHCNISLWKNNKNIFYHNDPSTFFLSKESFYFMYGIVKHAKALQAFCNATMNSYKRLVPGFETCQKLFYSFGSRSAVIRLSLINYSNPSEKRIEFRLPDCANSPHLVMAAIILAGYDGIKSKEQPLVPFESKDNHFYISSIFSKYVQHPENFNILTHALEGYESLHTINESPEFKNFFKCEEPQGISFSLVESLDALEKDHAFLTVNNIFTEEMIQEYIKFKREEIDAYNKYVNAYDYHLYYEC

[9] = tested on: THP-1
[10] = tested on: asexual-stage P. falciparum; experiment: Antimalarial activity on asexual-stage P. falciparum in human blood (parasitemia, Giemsa smears); type: cell-based, Plasmodium falciparum NF54; conditions: day 4, 0.5% starting parasitemia, 2% hematocrit; read-out: EC50 for inhibition of the asexual-stage P. falciparum (parasitemia rates)
Protocol: 3–5-day cultured P. falciparum-infected red blood cells (iRBCs) were mixed with fresh human red blood cells (RBCs) (AB+ type) in complete RPMI 1640 to prepare cultures with 0.5% parasitemia and 2% hematocrit. AST was dissolved in dimethyl sulfoxide (DMSO). Then, 5 μL DMSO with AST at concentrations of 0, 0.5, 1, 2, 4, and 8 mM were added to the 0.5 mL iRBCs in a 48-well plate, yielding final concentrations of 5, 10, 20, 40, and 80 µM, respectively. The plate was incubated in a candle jar at 37 °C. Approximately 48 h later, the medium was replaced with fresh medium containing the same concentration of AST. Parasitemia was recorded via microscopic evaluation of Giemsa-stained blood smears on day 4 post-incubation.

[11] = tested on: macrophage-like cells differentiated from THP-1

T1 sequence (P15104 whole entry): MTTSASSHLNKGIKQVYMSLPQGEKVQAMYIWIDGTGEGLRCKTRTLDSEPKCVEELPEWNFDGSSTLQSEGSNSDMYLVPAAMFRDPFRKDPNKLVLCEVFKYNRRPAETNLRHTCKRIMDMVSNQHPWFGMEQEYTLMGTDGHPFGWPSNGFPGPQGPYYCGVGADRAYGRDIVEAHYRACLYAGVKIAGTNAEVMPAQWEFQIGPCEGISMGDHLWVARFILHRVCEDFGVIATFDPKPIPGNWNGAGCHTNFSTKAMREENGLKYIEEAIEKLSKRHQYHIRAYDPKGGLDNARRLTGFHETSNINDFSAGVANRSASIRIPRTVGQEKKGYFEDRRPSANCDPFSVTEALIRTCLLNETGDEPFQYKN

C[As](=O)(O)CC[C@H](N)C(=O)O [AST, 2-amino-4-(hydroxymethylarsinoyl)butanoate]
CC50 [1]: 150 to 200 µM
inhibition of malaria transmission ([2]; 3 µM AST, SMFA): completely inhibited
EC50 ([2]; SMFA, day 7 post-infection, read-out: EC50 in blocking the transmission of the sexual-stage P. falciparum to mosquitos (oocysts per mosquito)): 0.34 µM
Mean oocyst number per midgut ([2]; [AST] 0.1 μM): 2.8
Infect(%) percentage of infected mosquitoes ([2]; [AST] 0.1 μM): 59.6%
Mean oocyst number per midgut ([2]; [AST] 0.3 μM): 1.4
Infect(%) percentage of infected mosquitoes ([2]; [AST] 0.3 μM): 36.8%
Mean oocyst number per midgut ([2]; [AST] 1 μM): 0.25
Infect(%) percentage of infected mosquitoes ([2]; [AST] 1 μM): 20%
Mean oocyst number per midgut ([2]; [AST] 3 μM): 0
Infect(%) percentage of infected mosquitoes ([2]; [AST] 3 μM): 0%
Mean oocyst number per midgut ([2]; [AST] 30 μM): 0
Infect(%) percentage of infected mosquitoes ([2]; [AST] 30 μM): 0%
permeability (total cellular arsenic levels) [3]: permeable
CC50 [4]: > 250 µM
insecticidal activity (dead mosquitoes) [5]: no dead mosquitoes were observed
CC50 [6]: > 250 µM
cytotoxicity relative to As(III) (times less cytotoxic) [6]: > 10 times
effect on activity of hGS-II [7]: did not significantly reduce
EC50 [8]: 0.4 µM
activity of PfGS-I compared with the control without AST treatment ([8]; 1 µM AST, PfGS-I 1 µM, 30 min, Figure 2b): less than 40%
inhibition of PfGS-I activity ([8]; AST at 100 µM, Figure 2c): completely inhibited
CC50 [9]: > 250 µM
EC50 [10]: 13.9 µM
CC50 [11]: > 250 µM
